Data published in patent US6066628A, “Non-iron metalloporphyrins and methods of use” (Emory University, priority 1998, dated 2000).
Where two headings read alike, the source gives them in different places.

Assays:
Y. enterocolitica [1] = test: Minimal bactericidal concentration; type: cell-based; conditions: reduces plating efficiency more than 99.9%; minimal exposure to light
M. smegmatis [2] = tested on: M. smegmatis
Ps. aeruginosa = test: Disc diffusion sensitivity test; type: cell-based, Pseudomonas aeruginosa; conditions: disc ~50 μg MP; also: key: -: resistant; N: not determined
M tuber. H37Pa = test: Disc diffusion sensitivity test; type: cell-based, Mycobacterium tuberculosis; conditions: disc ~50 μg MP
Y. pseudotuberculosis = type: cell-based
H. pylori ATCC 43504 = test: Minimal inhibitory concentration; type: cell-based, Helicobacter pylori; conditions: H. pylori ATCC 43504 (Table 5)
M. tuberculosis = type: cell-based, Mycobacterium tuberculosis
Y. enterocolitica [3] = test: Disc diffusion sensitivity test; type: cell-based; conditions: disc ~50 μg MP
M. smegmatis [4] = type: cell-based, Mycobacterium smegmatis
M. smegmatis [5] = test: Minimal bactericidal concentration; type: cell-based, Mycobacterium smegmatis; conditions: reduces plating efficiency more than 99.9%; minimal exposure to light
Bacillus subtilis = test: Minimal inhibitory concentration; type: cell-based
S. crevisieae = test: Disc diffusion sensitivity test; type: cell-based, Saccharomyces cerevisiae; conditions: S. cerevisiae; disc ~50 μg MP
MDCK cells = test: Toxicity to mammalian cell monolayers; conditions: 0.5 mg in 1 mL DMEM; 24 hrs
E. aerogenes = test: Disc diffusion sensitivity test; type: cell-based, Enterobacter aerogenes
K. pneumoniae = test: Disc diffusion sensitivity test; type: cell-based, Klebsiella pneumoniae
S. aureus = type: cell-based, Staphylococcus aureus
Y. enterocolitica [6] = test: microbe, parasite or virus in culture; type: cell-based
F. menigosepticum = test: Disc diffusion sensitivity test; type: cell-based, Flavobacterium meningosepticum
P. mirabills = test: Disc diffusion sensitivity test; type: cell-based, Proteus mirabilis
bacteria = type: cell-based
S. pyogenes A = test: Disc diffusion sensitivity test; type: cell-based, Streptococcus pyogenes; conditions: disc ~50 μg MP
[7] = tested on: Mycobacterium bovis (BCG); type: cell-based
C. freundii = test: Disc diffusion sensitivity test; type: cell-based, Citrobacter freundii
E. faecalis = test: Disc diffusion sensitivity test; type: cell-based, Enterococcus faecalis; conditions: disc ~50 μg MP; also: key: -: resistant; N: not determined
M. smegmatis LR222 = test: Growth kinetics with Ga-PPIX; type: cell-based, Mycobacterium smegmatis; conditions: 1 μg/ml
mice = test: Preliminary toxicity testing on animals; type: in vivo
Description: (§1) To test for toxicity of MPs for mammalian cells, semiconfluent monolayers of four cell lines (MRC-5 primary human fibroblasts, Vero cells, MDCK cells and CaCO-2 cells) were incubated for 24 to 48 hours in the presence of 5, 25, 50, 250 and 400 μg/ml of Ga-PPIX dissolved in 0.02 M NaOH.
Two mice were each injected intraperitoneally with 0.5 mg gallium protoporphyrin IX and observed for 7 days. […] The animals were sacrificed, and their internal organs were microscopically examined for signs of inflammation.

M. smegmatis [8] = test: Disc diffusion sensitivity test; type: cell-based, Mycobacterium smegmatis; conditions: disc ~50 μg MP
K. oxytoca = test: Disc diffusion sensitivity test; type: cell-based, Klebsiella oxytoca
[9] = tested on: Y. enterocolitica fur (H1852); type: cell-based; conditions: 1 μg/ml
CaCO-2 cells = test: Toxicity to mammalian cell monolayers; type: cell-based; conditions: 5 to 400 μg/ml; 24 to 48 hours
Description: as §1

B. subtilis = test: Disc diffusion sensitivity test; type: cell-based, Bacillus subtilis; conditions: B. subtilis; disc ~50 μg MP
S. marcescens = test: Disc diffusion sensitivity test; type: cell-based, Serratia marcescens

C=CC1=C(C)C2=Cc3c(C=C)c(C)c4[n]3[Ga][n]3c(c(C)c(CCC(=O)O)c3=CC3=NC(=C4)C(C)=C3CCC(=O)O)=CC1=N2 [Ga-PPIX, Gallium (III) protoporphyrin IX chloride]
Minimal bactericidal concentration (MBC) (Y. enterocolitica [1]): 6.4
spontaneous resistance (M. smegmatis [2]): did not produce spontaneous resistant mutants
diameter (mm) of the inhibition zone (Ps. aeruginosa): -
diameter (mm) of the inhibition zone (M tuber. H37Pa): 36 mm
MIC (Y. pseudotuberculosis; Y. pseudotuberculosis YP66 (Table 4)): < 0.1 µg/mL
MIC (Y. pseudotuberculosis; Y. pseudotuberculosis YP66 (Table 6), in µg/mL): 0.2-0.4
MIC (H. pylori ATCC 43504): 0.2 µg/mL
MIC (M. tuberculosis; M. tuberculosis Rv (Table 5)): 4 µg/mL
sensitivity (preliminary experiments) (M. tuberculosis; pathogenic M. tuberculosis): sensitive
diameter (mm) of the inhibition zone (Y. enterocolitica [3]): 28 mm
lower MIC in low iron media (M. smegmatis [4]; LB+0.2 mM Desferal): 2 fold
antibacterial activity (M. smegmatis [4]; M. smegmatis): inhibitory
MIC (M. smegmatis [4]; M. smegmatis LR222 (Table 4)): 0.5 µg/mL
Minimal inhibitory concentration (MIC) (M. smegmatis [4]; M. smegmatis LR222, LB + Tween 80 (Table 2)): 0.4 µg/mL
MIC (M. smegmatis [4]; M. smegmatis LR222, dark (Table 10)): 0.4 µg/mL
Minimal bactericidal concentration (MBC) (M. smegmatis [5]): 10
MIC (Bacillus subtilis; B. subtilis 3G18, 20 to 24 hours (Table 5)): 0.2 µg/mL
MIC (Bacillus subtilis; Bacillus subtilis (Table 4)): < 0.1 µg/mL
diameter (mm) of the inhibition zone (S. crevisieae): -
cytotoxic and/or morphological changes (MDCK cells): No visible cytotoxic and/or morphological changes were observed
diameter (mm) of the inhibition zone (E. aerogenes; E. aerogenes, disc ~50 μg MP): 22 mm
sensitive strains / strains tested (inhibition zones larger or equal 20 mm) (E. aerogenes; Enterobacter aerogenes, 50 μg disc): 1/1
diameter (mm) of the inhibition zone (K. pneumoniae; K. pneumoniae, disc ~50 μg MP): 22 mm
sensitive strains / strains tested (inhibition zones larger or equal 20 mm) (K. pneumoniae; Klebsiella pneumoniae, 50 μg disc): 9/13
MIC in Muller-Hinton broth versus NB broth (S. aureus; Muller-Hinton broth): did not differ significantly
lower MIC in low iron media (S. aureus; NBD with 0.1 mM dipyridyl): 2 fold
MIC (S. aureus; S. aureus 8325-4 (Table 4)): < 0.1 µg/mL
MIC (S. aureus; S. aureus 8325-4 (Table 6), in µg/mL): 1-2
MIC (S. aureus; S. aureus 8325-4, 20 to 24 hours (Table 5)): 1 to 2 µg/mL
MIC (S. aureus; S. aureus IR2419, dark (Table 10)): 1.6 µg/mL
Minimal inhibitory concentration (MIC) (S. aureus; methicillin-resistant S. aureus IR219, Nutrient broth (Table 2)): 1.6 µg/mL
Minimal inhibitory concentration (MIC) (Y. enterocolitica [6]): 0.4
antibacterial activity (Y. enterocolitica [6]): inhibitory
sensitivity of hemR mutant (Y. enterocolitica [6]): resistant to relatively high concentrations
sensitivity of hemT, hemU, hemV mutants (Y. enterocolitica [6]): fully sensitive
MIC (Y. enterocolitica [6]; in µg/mL): 0.4
diameter (mm) of the inhibition zone (F. menigosepticum; F. meningosepticum, disc ~50 μg MP): 22 mm
sensitive strains / strains tested (inhibition zones larger or equal 20 mm) (F. menigosepticum; Flavobacterium meningosepticum, 50 μg disc): 1/1
diameter (mm) of the inhibition zone (P. mirabills; P. mirabilis, disc ~50 μg MP): 21 mm
sensitive strains / strains tested (inhibition zones larger or equal 20 mm) (P. mirabills; Proteus mirabilis, 50 μg disc): 2/2
antibacterial activity (bacteria): widest spectrum and the highest level of antibacterial activity
diameter (mm) of the inhibition zone (S. pyogenes A): -
MIC ([7]; M. bovis (BCG) (Table 4)): 0.4 µg/mL
MIC ([7]; M. bovis (BCG), two weeks (Table 5)): 0.4 µg/mL
diameter (mm) of the inhibition zone (C. freundii; C. freundii, disc ~50 μg MP): 22 mm
sensitive strains / strains tested (inhibition zones larger or equal 20 mm) (C. freundii; Citrobacter freundii, 50 μg disc): 4/4
diameter (mm) of the inhibition zone (E. faecalis): -
growth in presence of Ga-PPIX (M. smegmatis LR222): completely prevented growth
behavior, eating habits, stress, general condition (mice; 0.5 mg intraperitoneally, 7 days): No change in behavior, eating habits and/or apparent stress or general condition were recorded
inflammation of internal organs (mice; 0.5 mg intraperitoneally, 7 days, microscopy): No visible indications of inflammation were observed
peracute or acute effect on health and behavior (mice; single intraperitoneal dose of 25 mg/kg): does not cause any peracute or acute effect on the health and behavior of mice
diameter (mm) of the inhibition zone (M. smegmatis [8]): 25 mm
diameter (mm) of the inhibition zone (K. oxytoca; K. oxytoca, disc ~50 μg MP): 21 mm
sensitive strains / strains tested (inhibition zones larger or equal 20 mm) (K. oxytoca; Klebsiella oxytoca, 50 μg disc): 1/1
growth in presence of Ga-PPIX [9]: completely prevented growth
detachment or rounding of cells (CaCO-2 cells): No detachment or rounding of cells was noticed
sensitivity (preliminary experiments) (M. avium; M. avium): sensitive
MIC (M. avium; M. avium ATCC15769 (Table 5)): 1 µg/mL
diameter (mm) of the inhibition zone (B. subtilis): 24 mm
diameter (mm) of the inhibition zone (S. marcescens; S. marcescens, disc ~50 μg MP): 23 mm
sensitive strains / strains tested (inhibition zones larger or equal 20 mm) (S. marcescens; Serratia marcescens, 50 μg disc): 2/3
